Data from patent publication US5696112A, “Fused heterocyclic azepines as vasopressin antagonists” (American Cyanamid Company, priority 1995, dated 1997).

Biological target: T1, Vasopressin V1 Receptor Subtype in Human Platelet Membranes (Homo sapiens, UniProt P37288)
T1 construct: tissue Hudson Valley Blood Services, Westchester Medical Center, Valhalla, N.Y; host or cells: human platelet membranes from frozen platelet rich plasma
Assay: Binding to V1 Receptor Subtype in Human Platelet membranes
Experimental: Radioligand Binding Experiments with Human Platelet Membranes
Platelet Source: Hudson Valley Blood Services, Westchester Medical Center, Valhalla, N.Y.
Platelet Membrane Preparation:
Frozen platelet rich plasma (PRP), received from the Hudson Valley Blood Services are thawed to room temperature. The tubes containing the PRP are centrifuged at 16,000×g for 10 min. at 4° C. and the supernatant fluid discarded. The platelets resuspended in an equal volume of 50.0 mMTris.HCl, pH 7.5 containing 120 mM NaCl and 20.0 mM EDTA. The suspension is recentrifuged at 16,000×g for 10 min. This washing step is repeated one more time. The wash is discarded and the lysed pellets homogenized in low ionic strength buffer of Tris.HCl, 5.0 mM, pH 7.5 containing 5.0 mM EDTA. The homogenate is centrifuged at 39,000×g for 10 min. The resulting pellet is resuspended in Tris.HCl buffer, 70.0 mM, pH 7.5 and recentrifuged at 39,000×g for 10 min. The final pellet is resuspended in 50.0 mM Tris.HCl buffer pH 7.4 containing 120 mM NaCl and 5.0 mM HCl to give 1.0-2.0 mg protein per ml of suspension.
Binding to Vasopressin V1 Receptor Subtype in Human Platelet Membranes:
In wells of a 96 well format microtiter plate, add 100 μl of 50.0 mM Tris.HCl buffer containing 0.2% BSA and a mixture of protease inhibitors (aprotinin, leupeptin etc.). Then add 20 μl of [^3 H]Ligand: (Manning or Arg^8 Vasopressin), to give final concentrations ranging from 0.01 to 10.0 nM. Initiate the binding by adding 80.0 μl of platelet suspension (approx. 100 μg protein). Mix all reagents by pipetting the mixture up and down a few times. Non-specific binding is measured in the presence of 1.0 μM of unlabeled ligand (Manning or Arg^8 Vasopressin). Let the mixture stand undisturbed at room temperature for ninety (90) min. Upon this time, rapidly filter off the incubate under vacuum suction over GF/B filters, using a Brandel® Harvester. Determine the radioactivity caught on the filter disks by the addition of liquid scintillant and counting in a liquid scintillator

T1 sequence (P37288 whole entry): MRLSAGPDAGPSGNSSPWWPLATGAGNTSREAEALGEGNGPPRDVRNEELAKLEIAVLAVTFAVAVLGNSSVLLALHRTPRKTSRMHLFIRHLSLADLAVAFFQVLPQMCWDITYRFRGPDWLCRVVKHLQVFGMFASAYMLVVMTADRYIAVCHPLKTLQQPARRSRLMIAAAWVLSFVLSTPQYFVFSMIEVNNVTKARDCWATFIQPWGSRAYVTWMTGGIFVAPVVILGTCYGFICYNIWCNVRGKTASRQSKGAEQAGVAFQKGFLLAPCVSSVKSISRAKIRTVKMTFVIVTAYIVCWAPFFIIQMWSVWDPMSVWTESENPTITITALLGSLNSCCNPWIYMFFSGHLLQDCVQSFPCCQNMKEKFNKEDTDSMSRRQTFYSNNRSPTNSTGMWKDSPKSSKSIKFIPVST

IC50 [µM] | Compound
0.11 | Cc1ccc(F)cc1C(=O)Nc1ccc(C(=O)N2CCCCc3sccc32)c(Cl)c1 [Example 70, N-[4-[(5,6,7,8-Tetrahydro-4H-thieno[3,2-b]azepin-4-yl)carbonyl]-3-chlorophenyl]-5-fluoro-2-methylbenzamide]
0.18 | O=C(Nc1ccc(C(=O)N2CCCCc3sccc32)c(Cl)c1)c1ccc(F)cc1Cl [Example 183]
0.19 | O=C(Nc1ccc(C(=O)N2CCCCc3sc(Cl)cc32)cc1)c1c(Cl)cccc1Cl [Example 95, N-[4-[(2-Chloro-5,6,7,8-tetrahydro-4H-thieno[3,2-b]azepin-4-yl)carbonyl]phenyl]-2,6-dichlorobenzamide]
0.68 | O=C(Nc1ccc(C(=O)N2CCCCc3sccc32)c(Cl)c1)c1ccc(Cl)cc1Cl [Example 68, N-[4-[(5,6,7,8-Tetrahydro-4H-thieno[3,2-b]azepin-4-yl)carbonyl]-3-chlorophenyl]-2,4-dichlorobenzamide]
